Experimental data taken from US20230096663A1, “FARNESOID X RECEPTOR MODULATING COMPOUNDS AND METHODS OF USING THE SAME” (Inorbit Therapeutics AB, priority 2020, published 2023).

How the values were obtained:
[1] = target: T1, Human FXR receptor (NR1H4) (Homo sapiens, UniProt Q96RI1); assay: Human Farnesoid X Receptor (NR1H4, FXR) reporter assay; assay type: cell-based
T1 sequence (Q96RI1 1-486): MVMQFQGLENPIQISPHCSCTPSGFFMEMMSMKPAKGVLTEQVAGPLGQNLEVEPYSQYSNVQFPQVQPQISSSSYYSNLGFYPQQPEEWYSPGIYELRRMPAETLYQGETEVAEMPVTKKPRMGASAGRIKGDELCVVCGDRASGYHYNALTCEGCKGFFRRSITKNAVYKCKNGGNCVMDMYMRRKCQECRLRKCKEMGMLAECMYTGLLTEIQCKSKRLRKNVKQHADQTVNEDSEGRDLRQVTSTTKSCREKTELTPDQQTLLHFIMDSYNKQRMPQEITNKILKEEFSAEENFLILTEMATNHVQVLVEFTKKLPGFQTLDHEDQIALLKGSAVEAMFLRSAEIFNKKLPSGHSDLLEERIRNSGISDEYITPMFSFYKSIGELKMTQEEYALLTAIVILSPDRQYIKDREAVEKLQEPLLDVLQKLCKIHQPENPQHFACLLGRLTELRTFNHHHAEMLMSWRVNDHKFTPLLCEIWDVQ
Excerpt: Determination of a ligand mediated Gal4 promoter driven transactivation to quantify ligand binding mediated activation of FXR. A FXR Reporter Assay kit was purchased from Indigo Bioscience (#IB00601-32) to determine the potency and efficacy of compounds that can induce FXR activation. The nuclear receptor assay system utilizes non-human mammalian cells engineered to provide constitutive high level expression of Human FXR receptor (NR1H4), a ligand-dependent transcription factor. The reporter cells include luciferase reporter gene functionality linked to an FXR-response promoter. Quantifying changes in luciferase expression in the treated reporter cells provides a sensitive surrogate measure of the changes in FXR activity. […] Luminescence intensity of the reaction is quantified using a luminometer, and is reported in terms of Relative Light Units (RLU's). […] After incubation, the media was carefully removed, Luciferase detection solution was added and the plate read in a Luminometer. The data was calculated as per kit instructions, with increases in luminescence being directly proportional to increases in compound agonist activity.

[2] = tested on: FXR related genes (BSEP, SHP) in primary human hepatocytes; assay: Gene expression in human primary hepatocytes (BSEP, SHP); assay type: cell-based; settings: 24 hours incubation
Protocol: The test compound was dissolved in buffer to give a 10 mM stock solution. The compound was serially diluted to the desired concentrations and then incubated with human primary hepatocytes for 24 hours at 37° C. in a CO2 incubator. After incubation, the media was removed and the RNA harvested using the Trizol-CHCl3 method and quantified using Nano drop. The RNA was then Reverse Transcribed to cDNA using a superscript vilo cDNA synthesis kit. The cDNA with respective Taqman primers, master mix are then amplified using quantitative RT-PCR system. […] The compounds of examples 2 and 3 upregulate FXR related and disease relevant genes on incubation with primary human hepatocytes. […] It is a uni-directional, ATP-dependent efflux transporter that plays an important role in the elimination of bile salts from the hepatocyte into the bile canaliculi for export into the gastrointestinal tract. FXR also induces the expression of small heterodimer partner (SHP) which controls a complex set of genes in multiple metabolic pathways. It reduces the expression of CYP7A1, a liver-specific enzyme that catalyzes the first and rate-limiting step in one of the two pathways for bile acid biosynthesis.

[3] = Metabolism in human microsomes; assay type: in vitro ADME; settings: 37° C.
Protocol: Microsomal mixes (247.5 μL) of human microsomes (1250 μL, 4 mg/ml), potassium phosphate buffer (1250 μL), alamethecin (12.5 μL, 5 mg/ml) and cofactors Nicotinamide Adenine Dinucleotide Phosphate NADPH (1250 μL, 4 mM)/uridine 5′-diphospho-glucuronic acid UDPGA (1250 μL, 4 mM) or UDPGA only were loaded onto a shaker for 10 minutes. The test compound (2.5 μL, 100 μM) was then separately added to both microsomal mixes (i.e., one mix with NADPH and one mix without NADPH), incubated at 37° C. and sampled at predetermined time points. Analysis was performed using a AB SCIEX QTRAP 4500 LC-MS/MS, a Kinetex C18, 50*4.6 mm, 5 μm column and eluting with 10 mM Ammonium Acetate/Methanol.
Table 3 summarizes the % of compound remaining after 45 minutes of incubation with human microsomes either in the presence of co-factors UDPGA and NADPH or UDPGA only.

[4] = tested on: HFHC fed male C57BL/6 mice; assay: In-vivo efficacy in high fat high cholesterol diet (HFHC) fed male C57BL/6 mice; settings: oral, 3 mg/kg BID, 3 mg/kg QD and 10 mg/kg BID, after 28 days
Protocol: C57BL/6J male mice were purchased at the age of 8 weeks. After an acclimation period of 1 week, animals were maintained on high fat high cholesterol diet (Research diets) with 60% kcal from fat plus 0.5% (w/w) extra cholesterol (Research diet, D02051401) for a period of 4 weeks. Age matched control animals (n=6) were maintained on normal chow. Mice were dosed with vehicle, test compounds and GW4064 morning (7.00 AM) and evening (5:00 PM) from day 0 to 27. At 28th day, animals were dosed at 7:00 AM and kept on fasting for next 4 hours before blood and tissues collection. Plasma samples separated from collected blood were stored at −20° C. immediately for estimation analysis. The samples were analyzed using the Siemens Dimension RxL Max Clinical chemistry analyzer.
Right liver lobe was used for the test compounds exposure, triglyceride and cholesterol estimation. Liver tissues were dissected, weighed and snap frozen and stored at −80° C. for further analysis of hepatic triglyceride, cholesterol and compound exposure. In brief, stored tissues were thawed to room temperature and triglycerides were extracted by homogenizing 25 mg of liver tissues in 1 ml of 5% Triton X100 (Lot No. 61K01741-Sigma Aldrich) in water. Homogenized tissues were slowly heated to 80° C. in water bath for 5 minutes. The samples were cooled down and again heated to solubilize all the triglycerides into solution. The samples were centrifuged for 5 minutes at 4000 RPM and supernatant was collected for quantification^3 using commercially available kit from ERBA (Lot No. B061832).
Homogenized samples were centrifuge at 13000 g for 10 minutes to remove insoluble material. The organic phase was separated into new tube and air dried at 50° C. to remove chloroform. Thereafter, samples were vacuumed for 30 minutes to remove residue organic solvent. Dried lipids were dissolved in 200 μL of cholesterol assay buffer (provided with Sigma cholesterol assay kit Lot No. B2J210603V), sonicated for 20 minutes and vortexed until mixture was homogenous as mentioned in kit protocol. Samples were diluted with cholesterol assay buffer at (1:10) ratio to fit in standard curve and finally 50 μL of diluted samples were used for the assay.
Compound levels were also measured in the plasma and liver to understand its distribution profile.

## O=S([O-])c1cc(F)c2nc(N3[C@@H]4CC[C@H]3C[C@@H](OCc3c(-c5ccccc5OC(F)(F)F)noc3C3CC3)C4)sc2c1.[Na+] [Example 2, Sodium 2-(3-((5-cyclopropyl-3-(2-(trifluoromethoxy)phenyl)isoxazol-4-yl)methoxy)-8-azabicyclo[3.2.1]octan-8-yl)-4-fluorobenzo[d]thiazole-6-sulfinate]
[1]; Human FXR (NR1H4) luciferase reporter assay, 22-24 h
  EC50: 0.46 µM
[1]; normalized to GW4064 set as 100%
  Efficacy: 119%
[2]
  Expression of FXR related and disease relevant genes (BSEP, SHP): upregulate
[3]; co-factor UDPGA only
  % remaining @ 45 mins of incubation with UDPGA: 94%
[3]; co-factors UDPGA and NADPH
  % remaining @ 45 mins of incubation with UDPGA and NADPH: 52%
[4]
  Cholesterol levels in the liver: reductions
  Cholesterol levels in the plasma: reductions
  Liver triglycerides: reductions
